Values after ≈ are worked out from the molar mass of the structure shown.
Tests used:
Assay in all cases: Broth microdilution MIC (NCCLS)
Type in all cases: cell-based
[1] = tested on: S. aureus ATCC 13709 (Meth^S); conditions: Staphylococcus aureus, ATCC13709, S. aureus ATCC 13709 (Meth^S); read-out: MIC
Method in brief: (§1)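 MIC = lowest drug concentration with no bacterial growth, read at 650 nm and visually after 24 h at 35° C. Assay run in MHB per NCCLS, inoculum 5×10^5 CFU/mL, compounds serially diluted 2-fold in plate.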

E. faecalis VanB (Van^R) = conditions: Enterococcus faecalis
Method in brief: as §1

[2] = tested on: S. aureus 76 (Meth^R)(lac^+); conditions: Staphylococcus aureus
Method in brief: as §1

E. faecium ATCC 35667 = conditions: Enterococcus faecium, ATCC35667
Method in brief: as §1

E. faecium VanA (Van^R) = conditions: Enterococcus faecium
Method in brief: as §1

[3] = tested on: S. aureus Spain #356 (Meth^R); conditions: Staphylococcus aureus, 24 h
Method in brief: as §1

[4] = tested on: S. haemolyticus 05 (Meth^R); conditions: Staphylococcus haemolyticus
Method in brief: as §1

[5] = tested on: S. aureus PC1 (Meth^S)(lac^+); conditions: Staphylococcus aureus
Method in brief: as §1

S. aureus ATCC 29213 = conditions: Staphylococcus aureus, ATCC29213; S. aureus ATCC 29213; Mueller-Hinton broth, 24 h at 35° C.; read-out: MIC
Method in brief: as §1

P. aeruginosa ATCC 27853 = conditions: Pseudomonas aeruginosa, ATCC27853
Method in brief: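 Endpoint: lowest concentration preventing visible or OD650-detected growth. Conditions: Mueller-Hinton broth, serial 2-fold compound dilutions, 5×10^5 CFU/mL, 35° C for 24 h. Inoculum counts were checked by plating on TSA.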

[6] = tested on: S. aureus ATCC 33593 (Meth^R); conditions: Staphylococcus aureus, ATCC33593
Method in brief: as §1

[7] = tested on: S. aureus Col (Meth^R)(lac^−); conditions: Staphylococcus aureus
Method in brief: as §1

E. faecalis ATCC 29212 = conditions: Enterococcus faecalis, ATCC29212
Method in brief: as §1

[8] = tested on: S. aureus Col8A (Meth^S)(lac^−); conditions: Staphylococcus aureus
Method in brief: as §1

Row | Compound | MIC [1] [µg/mL] | MIC (E. faecalis VanB (Van^R)) [µg/mL] | MIC [2] [µg/mL] | MIC (E. faecium ATCC 35667) [µg/mL] | MIC (E. faecium VanA (Van^R)) [µg/mL] | MIC [3] [µg/mL] | MIC [4] [µg/mL] | MIC [5] [µg/mL] | MIC (S. aureus ATCC 29213) [µg/mL] | MIC (P. aeruginosa ATCC 27853) [µg/mL] | MIC [6] [µg/mL] | MIC [7] [µg/mL] | MIC (E. faecalis ATCC 29212) [µg/mL] | MIC [8] [µg/mL]
1 | NCCSCc1nc(N)sc1SC1=C(C(=O)O)N2C(=O)[C@@H](NC(=O)/C(=N\O)c3nc(N)sc3Cl)[C@H]2SC1 [Cmpd 3, (7R)-7-[(Z)-2-(2-amino-5-chlorothiazol-4-yl)-2-(hydroxyimino)acetamido]-3-[4-(2-aminoethylthiomethyl)-2-amino-1,3-thiazol-5-ylthio]-3-cephem-4-carboxylic acid] | 0.13 (≈ 0.209 µM) | 0.25 (≈ 0.401 µM) | 1 (≈ 1.6 µM) | 1 (≈ 1.6 µM) | 8 (≈ 12.8 µM) | 1 (≈ 1.6 µM) | 1 (≈ 1.6 µM) | 0.25 (≈ 0.401 µM) | 0.25 (≈ 0.401 µM) | 4 (≈ 6.42 µM) | – | – | – | –
2 | NCCSCc1nc(SCCN)sc1SC1=C(C(=O)O)N2C(=O)[C@@H](NC(=O)/C(=N\O)c3nc(N)sc3Cl)[C@H]2SC1 [Cmpd 11, (7R)-7-[(Z)-2-(2-amino-5-chlorothiazol-4-yl)-2-(hydroxyimino)acetamido]-3-[4-(2-aminoethylthiomethyl)-2-aminoethylthio-1,3-thiazol-5-ylthio]-3-cephem-4-carboxylic acid] | 0.13 (≈ 0.19 µM) | 0.06 (≈ 0.0878 µM) | 0.5 (≈ 0.732 µM) | 0.5 (≈ 0.732 µM) | 4 (≈ 5.85 µM) | 0.5 (≈ 0.732 µM) | 0.5 (≈ 0.732 µM) | 0.13 (≈ 0.19 µM) | 0.06 (≈ 0.0878 µM) | 2 (≈ 2.93 µM) | 0.5 (≈ 0.732 µM) | 0.5 (≈ 0.732 µM) | 0.06 (≈ 0.0878 µM) | –
3 | NCCSCc1ncccc1SC1=C(C(=O)O)N2C(=O)[C@@H](NC(=O)/C(=N\O)c3nc(N)sc3Cl)[C@H]2SC1 [Cmpd 13, (7R)-7-[(Z)-2-(2-amino-5-chlorothiazol-4-yl)-2-(hydroxyimino)acetamido]-3-[2-(2-aminoethylthiomethyl)pyrid-3-ylthio]-3-cephem-4-carboxylic acid] | – | – | – | – | – | – | – | 0.25 (≈ 0.415 µM) | 0.25 (≈ 0.415 µM) | – | – | 0.5 (≈ 0.83 µM) | – | –
4 | N=C(N)NCCSCc1ncccc1SC1=C(C(=O)O)N2C(=O)[C@@H](NC(=O)/C(=N\O)c3nsc(N)n3)[C@H]2SC1 [Cmpd 14, (7R)-7-[(Z)-2-(5-amino-1,2,4-thiadiazol-3-yl)-2-(hydroxyimino)acetamido]-3-[2-(2-guanidinoethylthiomethyl)pyrid-3-ylthio]-3-cephem-4-carboxylic acid] | – | 0.25 (≈ 0.409 µM) | – | – | – | – | – | – | – | – | – | – | – | –
5 | NCCSCc1ncccc1SC1=C(C(=O)O)N2C(=O)[C@@H](NC(=O)/C(=N\O)c3nsc(N)n3)[C@H]2SC1 [Cmpd 17, (7R)-7-[(Z)-2-(5-amino-1,2,4-thiadiazol-3-yl)-2-(hydroxyimino)acetamido]-3-[2-(2-aminoethylthiomethyl)pyrid-3-ylthio]-3-cephem-4-carboxylic acid] | 0.25 (≈ 0.44 µM) | – | – | – | – | – | – | 0.25 (≈ 0.44 µM) | 0.25 (≈ 0.44 µM) | – | – | – | – | –
6 | NCCSCc1cnccc1SC1=C(C(=O)O)N2C(=O)[C@@H](NC(=O)/C(=N\O)c3nsc(N)n3)[C@H]2SC1 [Cmpd 18, (7R)-7-[(Z)-2-(5-amino-1,2,4-thiadiazol-3-yl)-2-(hydroxyimino)acetamido]-3-[3-(2-aminoethylthiomethyl)pyrid-4-ylthio]-3-cephem-4-carboxylic acid] | 0.13 (≈ 0.229 µM) | 0.25 (≈ 0.44 µM) | 1 (≈ 1.76 µM) | 0.5 (≈ 0.879 µM) | 1 (≈ 1.76 µM) | 1 (≈ 1.76 µM) | 2 (≈ 3.52 µM) | 0.13 (≈ 0.229 µM) | 0.13 (≈ 0.229 µM) | > 32 | 1 (≈ 1.76 µM) | 1 (≈ 1.76 µM) | 0.13 (≈ 0.229 µM) | –
7 | NCCSCc1cnccc1SC1=C(C(=O)O)N2C(=O)C(NC(=O)/C(=N\O)c3csc(N)n3)C2SC1 (centres unmarked) [Cmpd 19] | 0.5 (≈ 0.881 µM) | 1 (≈ 1.76 µM) | 2 (≈ 3.52 µM) | 2 (≈ 3.52 µM) | 4 (≈ 7.05 µM) | 2 (≈ 3.52 µM) | 4 (≈ 7.05 µM) | 0.5 (≈ 0.881 µM) | 0.5 (≈ 0.881 µM) | > 32 | 2 (≈ 3.52 µM) | 2 (≈ 3.52 µM) | 0.5 (≈ 0.881 µM) | –
8 | NCCSCc1cnccc1SC1=C(C(=O)O)N2C(=O)[C@@H](NC(=O)/C(=N\O)c3nc(N)sc3Cl)[C@H]2SC1 [Cmpd 20, (7R)-7-[(Z)-2-(2-amino-5-chlorothiazol-4-yl)-2-(hydroxyimino)acetamido]-3-[3-(2-aminoethylthiomethyl)pyrid-4-ylthio]-3-cephem-4-carboxylic acid] | 0.13 (≈ 0.216 µM) | 0.13 (≈ 0.216 µM) | 1 (≈ 1.66 µM) | 0.5 (≈ 0.83 µM) | 0.25 (≈ 0.415 µM) | 1 (≈ 1.66 µM) | 2 (≈ 3.32 µM) | 0.25 (≈ 0.415 µM) | 0.25 (≈ 0.415 µM) | > 32 | 1 (≈ 1.66 µM) | 0.5 (≈ 0.83 µM) | 0.06 (≈ 0.0996 µM) | –
9 | NCCSCc1ccncc1SC1=C(C(=O)O)N2C(=O)[C@@H](NC(=O)/C(=N\O)c3nc(N)sc3Cl)[C@H]2SC1 [Cmpd 21, (7R)-7-[(Z)-2-(2-amino-5-chlorothiazol-4-yl)-2-(hydroxyimino)acetamido]-3-[4-(2-aminoethylthiomethyl)pyrid-3-ylthio]-3-cephem-4-carboxylic acid] | – | – | – | – | – | – | – | 0.25 (≈ 0.415 µM) | – | – | – | – | – | –
10 | NCCSCc1ncsc1SC1=C(C(=O)O)N2C(=O)[C@@H](NC(=O)/C(=N\O)c3cccc(N)n3)[C@H]2SC1 [Cmpd 23, (7R)-7-[(Z)-2-(2-aminopyrid-6-yl)-2-(hydroxyimino)acetamido]-3-[4-(2-aminoethylthiomethyl)-1,3-thiazol-5-ylthio]-3-cephem-4-carboxylic acid] | 0.06 (≈ 0.106 µM) | 0.5 (≈ 0.881 µM) | 2 (≈ 3.52 µM) | 2 (≈ 3.52 µM) | 2 (≈ 3.52 µM) | 2 (≈ 3.52 µM) | 4 (≈ 7.05 µM) | 0.13 (≈ 0.229 µM) | 0.13 (≈ 0.229 µM) | > 32 | 1 (≈ 1.76 µM) | 1 (≈ 1.76 µM) | 0.25 (≈ 0.44 µM) | –
11 | NCCSCc1cnccc1SC1=C(C(=O)O)N2C(=O)[C@@H](NC(=O)/C(=N\O)c3cccc(N)n3)[C@H]2SC1 [Cmpd 24, (7R)-7-[(Z)-2-(2-aminopyrid-6-yl)-2-(hydroxyimino)acetamido]-3-[3-(2-aminoethylthiomethyl)pyrid-4-ylthio]-3-cephem-4-carboxylic acid] | 0.25 (≈ 0.445 µM) | 0.5 (≈ 0.89 µM) | 1 (≈ 1.78 µM) | 1 (≈ 1.78 µM) | 2 (≈ 3.56 µM) | 2 (≈ 3.56 µM) | 2 (≈ 3.56 µM) | 0.25 (≈ 0.445 µM) | 0.25 (≈ 0.445 µM) | > 32 | 2 (≈ 3.56 µM) | 1 (≈ 1.78 µM) | 0.25 (≈ 0.445 µM) | 0.5 (≈ 0.89 µM)
12 | N=C(N)NCCSCc1cnccc1SC1=C(C(=O)O)N2C(=O)[C@@H](NC(=O)/C(=N\O)c3nsc(N)n3)[C@H]2SC1 [Cmpd 25, (7R)-7-[(Z)-2-(5-amino-1,2,4-thiadiazol-3-yl)-2-(hydroxyimino)acetamido]-3-[3-(2-guanidinoethylthiomethyl)pyrid-4-ylthio]-3-cephem-4-carboxylic acid] | 0.13 (≈ 0.213 µM) | 0.25 (≈ 0.409 µM) | 1 (≈ 1.64 µM) | 0.5 (≈ 0.819 µM) | 1 (≈ 1.64 µM) | 1 (≈ 1.64 µM) | 2 (≈ 3.27 µM) | 0.13 (≈ 0.213 µM) | 0.25 (≈ 0.409 µM) | > 32 | 1 (≈ 1.64 µM) | 1 (≈ 1.64 µM) | 0.13 (≈ 0.213 µM) | –
